Results on one molecule are retold here after patent publication US6653354B2, “NMDA antagonist comprising xenon” (priority 1999, dated 2003).

Experiment [1] has as its system c Fos expression in arcuate nucleus of hypothalamus. Nature of the experiment: c Fos expression in arcuate nucleus after NMA (inhibition of synaptic plasticity in vivo). Particulars: 75% Xe + NMA 100 mg/kg s.c. Also noted: species or system Sprague Dawley female adult rats. The source says:
With exposure to NMA neuronal activation is enhanced (E vs A) which is indicative of synaptic plasticity. In the presence of both Xenon (D) and MK 801 (B), synaptic plasticity induced by NMA is inhibited. […] This is sometimes referred to as long term potentiation, an example of synaptic plasticity. […] The attenuation of c Fos expression is a reflection of the inhibition of synaptic plasticity.

In experiment [2] the test system is neurons of arcuate nucleus of hypothalamus. The experiment can be described thus: NMA-induced neuron injury in the arcuate nucleus (neuroprotection in vivo). Details: species or system Sprague Dawley female adult rats. Particulars: 75% Xe + NMA 100 mg/kg s.c. As for the experimental part: It can be seen that NMA caused neuronal degeneration and vacuoulated swelling in the neuropil giving a spongiform appearance in the arcuate nucleus (E). The degenerated neuron has a pyknotic nucleus, which look like “bulls' eyes” because of oedematous swelling of the cytoplasmic compartment.
Rats were injected with NMA (100 mg/kg) sc and sacrificed 4 hours later after exposure to air (“NMA”; n=7) or xenon 75% (“75% xenon+NMA”; n=8). (For comparison the effect of MK801, the NMDA antagonist, is also shown). The arcuate nucleus was removed and sectioned and stained with cresyl violet. Control animals (“PS”; n=6) had neither NMA nor xenon administered. Data are reflected as either the mean of three sections/animal (upper) or the sum (lower) of degenerated neurons in both arcuate nuclei.

A further experiment concerns rhesus monkeys. The settings on record: cited from earlier work.
In experiment [3] the test system is glutamatergic synapses (NMDA receptor slow component, AMPA/KA receptor fast component) of hippocampal neurons. The experiment can be described thus: Excitatory (glutamatergic) postsynaptic currents, voltage-clamped autaptic hippocampal neurons. Format: cell-based, rat. How it is done: Hippocampal neurons were grown in culture using methods described previously (Segal M M et al, J. Neurophysiol. 1990, 64:1390-1399; Bekkers J M et al, Proc. Natl. Acad. Sci. U.S.A. 1991, 88:7834-7838; Mennerick S et al, J. Neurophysiol. 1995, 73:320-332). Briefly, hippocampi from Sprague Dawley rats (postnatal day 1-3) were dissected, roughly sliced and agitated in a papain-containing solution (20 units ml^−1) for 30 minutes at 37 EC. After washing with enzyme-free solution, the tissue was gently triturated with a fire-polished Pasteur pipette and the cells were plated out at a density of 8-10×10^4 cells ml^−1 and cultured (95% air/5% CO2) at 37° C. Glass coverslips used for culturing the cells were first coated with agarose (0.15% w/v) and then sprayed with a fine mist of poly-D-lysine (PDL) and collagen (0.1 mg ml^−1 PDL and 0.5 mg ml^−1 rat-tail collagen) from a glass micro-atomiser and sterilized by UV exposure. This produced micro-islands of permissive substrate with diameters of between 100 and 1000 μm. At 3-4 days after plating, when the glial cell layer was about 80% confluent, an anti-mitotic agent (cytosine β-D-arabinofuranoside, 5 μM) was added to arrest glial cell proliferation. Neuronal cultures were then allowed to mature for another 4-9 days. We used micro-islands which contained single isolated neurons whose axonal processes and dendritic trees formed multiple self-synapses (autapses). This procedure provided a large population of phenotypically identical monosynaptic connections.
The neurons were voltage-clamped using the whole-cell recording technique (Axopatch 200 amplifier, Axon Instruments, Foster City, Calif.). Electrodes were fabricated from borosilicate glass and typically had resistances of between 3-5 MΩ. Series resistance was compensated by 75-90%. Neurons were voltage-clamped at −60 mV, and synaptic responses were stimulated by a 2 ms depolarising pulse to +20 mV. […] For the synaptic measurements, data were sampled at 50 kHz, filtered at 20 kHz (−3 dB, 8-pole Bessel) and stored on a computer. The extracellular recording solution was (mM) 137 NaCl, 5 KCl, 3 CaCl2, 5 HEPES, 10 glucose, 0.001 glycine, 0.0001 strychnine-HCl, titrated to pH 7.3 with NaOH; and the intracellular (pipette) solution was (mM) 140 KCl, 4 NaCl, 0.5 EGTA, 2 MgATP, 10 HEPES, titrated to pH 7.25 with KOH.
Xenon solutions were prepared by first bubbling pure gases (oxygen, nitrogen or xenon) through fine sintered-glass bubblers in 250- or 500-ml Drechsel bottles filled with extracellular recording saline. […] (To minimise oxidization, the neurotoxins and neurotransmitters were excluded from the fully oxygenated saline.) During bubbling, the solutions were continually stirred at room temperature. These solutions were then mixed to achieve the desired final concentrations of the gases. Our control solutions usually contained 80% of the nitrogen solution and 20% of the oxygen solution, while our test solutions usually contained 80% of the xenon solution and 20% of the oxygen solution. Using a Bunsen water/gas partition coefficient of 0.0965 (Smith R A et al, Biochim. Biophys. Acta 1981, 645:327-338) we calculate that our standard test solution contained 3.4 mM xenon. Xenon (research grade, 99.993% pure) was supplied by BOC gases, Guildford, Surrey, UK. In all cases xenon was pre-applied to the neurons for at least 30 seconds before the initiation of synaptic currents.
In order to obtain an estimate for the total charge transfer, the EPSCs or IPSCs were numerically integrated.

[4] abbreviates: excitatory currents + 3.4 mM xenon.

The structures appear in SMILES notation. Entries after “also recorded” stand apart in the source; their conditions may differ.

`[Xe]` [xenon]: the “synaptic plasticity induced by NMA (c Fos expression)” value in experiment [1] is on record as “is inhibited”. In addition, the “NMA-induced neuronal injury (cresyl fast violet histology)” value in experiment [2] is recorded as “effective in reducing this injury”. In addition, in the experiment on rhesus monkeys, the “gaseous concentration which prevents a response to a painful stimulus (MAC)” value is 98 % atm. Moreover, the “effect on the fast AMPA/KA receptor-mediated component” value in experiment [3] (3.4 mM (80%) xenon) is “barely changes; also recorded: only a small effect”. Also, the “effect on the glutamatergic (excitatory) synaptic current” value in experiment [3] (3.4 mM xenon) is on record as “strongly depressed; also recorded: greatly depressed”. In experiment [3] (setting [4]), the “Decay half-time % change (means ± SEM)” value is −22.7 ± 2.5%, the “Ifast % change (means ± SEM)” value is recorded as −4.1 ± 5.2%, the “Ipeak % change (means ± SEM)” value is −13.5 ± 1.8% and the “Islow % change (means ± SEM)” value is −70.3 ± 2.4%. Further, in experiment [3] (setting [4]), the “Qfast % change (means ± SEM)” value is recorded as −11.4 ± 5.6%, the “Qslow % change (means ± SEM)” value is −68.2 ± 4.2%, the “Total charge transfer % change (means ± SEM)” value is on record as −55.6 ± 2.7% and the “τfast % change (means ± SEM)” value is listed as −12.3 ± 1.8%. In addition, the “τslow % change (means ± SEM)” value in experiment [3] (setting [4]) is −6.7 ± 6.5%.
